Activity calls are given as the source filed them.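 Rule for the calls: active = inhibition of at least 50% in a panel; inactive = the rest.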
Assays:
Experiment in all cases: GPCR and transporter radioligand displacement panel – cell-based, radioligand binding, single concentration, selectivity assay for STAT3/NF-kB dual inhibitor project, profiling panel (AID 624355)
[1] = tested on: Androgen (Testosterone) AR; conditions: Ricerca radioligand binding panel, receptors/transporters, at 10 µM, stronger effect = higher value
Tachykinin NK1 = conditions: Ricerca radioligand binding panel, receptors/transporters, at 10 µM, stronger effect = higher value
Endothelin ETB = conditions: Ricerca radioligand binding panel, receptors/transporters, at 10 µM, stronger effect = higher value
Imidazoline I2, Central = conditions: Ricerca radioligand binding panel, receptors/transporters, at 10 µM, stronger effect = higher value
Nicotinic Acetylcholine = conditions: Ricerca radioligand binding panel, receptors/transporters, at 10 µM, stronger effect = higher value
Interleukin IL-1 = conditions: Ricerca radioligand binding panel, receptors/transporters, at 10 µM, stronger effect = higher value
[2] = molecular target: Platelet-activating factor receptor (Homo sapiens) (UniProt P25105); conditions: Ricerca radioligand binding panel, receptors/transporters; Platelet Activating Factor (PAF); at 10 µM; stronger effect = higher value
[3] = tested on: Transporter, Norepinephrine (NET); conditions: Ricerca radioligand binding panel, receptors/transporters, at 10 µM, stronger effect = higher value
Purinergic P2Y = conditions: Ricerca radioligand binding panel, receptors/transporters, at 10 µM, stronger effect = higher value
Adrenergic a1D = conditions: Ricerca radioligand binding panel, receptors/transporters, at 10 µM, stronger effect = higher value
[4] = molecular target: Beta-2 adrenergic receptor (Homo sapiens) (UniProt P07550); conditions: Ricerca radioligand binding panel, receptors/transporters; Adrenergic B2; at 10 µM; stronger effect = higher value
[5] = tested on: Calcium Channel L-Type, Dihydropyridine; conditions: Ricerca radioligand binding panel, receptors/transporters, Dihydropyridine site, at 10 µM, stronger effect = higher value
Adenosine A1 = conditions: Ricerca radioligand binding panel, receptors/transporters, at 10 µM, stronger effect = higher value
GABAA, Muscimol, Central = conditions: Ricerca radioligand binding panel, receptors/transporters, Muscimol site, at 10 µM, stronger effect = higher value
Thyroid Hormone = conditions: Ricerca radioligand binding panel, receptors/transporters, at 10 µM, stronger effect = higher value
[6] = molecular target: Muscarinic acetylcholine receptor M3 (Homo sapiens) (UniProt P20309); conditions: Ricerca radioligand binding panel, receptors/transporters, at 10 µM, stronger effect = higher value
Muscarinic acetylcholine receptor M3 (Homo sapiens), sequence (P20309 whole entry, looked up): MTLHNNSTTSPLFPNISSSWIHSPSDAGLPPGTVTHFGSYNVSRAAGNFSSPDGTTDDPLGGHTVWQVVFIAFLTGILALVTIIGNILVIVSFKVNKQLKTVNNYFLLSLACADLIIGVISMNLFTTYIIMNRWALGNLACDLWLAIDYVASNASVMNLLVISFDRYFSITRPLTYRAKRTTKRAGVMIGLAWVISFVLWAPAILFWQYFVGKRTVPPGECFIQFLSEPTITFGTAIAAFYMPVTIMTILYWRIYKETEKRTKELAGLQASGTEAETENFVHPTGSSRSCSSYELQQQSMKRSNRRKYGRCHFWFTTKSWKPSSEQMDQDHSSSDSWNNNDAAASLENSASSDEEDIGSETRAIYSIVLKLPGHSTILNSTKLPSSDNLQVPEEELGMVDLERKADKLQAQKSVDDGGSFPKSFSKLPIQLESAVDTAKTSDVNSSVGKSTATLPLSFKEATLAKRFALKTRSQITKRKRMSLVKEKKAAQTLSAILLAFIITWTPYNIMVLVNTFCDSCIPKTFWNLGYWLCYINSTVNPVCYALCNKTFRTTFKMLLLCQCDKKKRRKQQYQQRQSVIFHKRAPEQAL

Phorbol Ester = conditions: Ricerca radioligand binding panel, receptors/transporters, at 10 µM, stronger effect = higher value
[7] = tested on: Leukotriene, Cysteinyl CysLT1; conditions: Ricerca radioligand binding panel, receptors/transporters, at 10 µM, stronger effect = higher value
Transporter, GABA = conditions: Ricerca radioligand binding panel, receptors/transporters, at 10 µM, stronger effect = higher value
Bradykinin B2 = conditions: Ricerca radioligand binding panel, receptors/transporters, at 10 µM, stronger effect = higher value
[8] = molecular target: Alpha-2A adrenergic receptor (Homo sapiens) (UniProt P08913); conditions: Ricerca radioligand binding panel, receptors/transporters; Adrenergic a2A; at 10 µM; stronger effect = higher value
Alpha-2A adrenergic receptor (Homo sapiens), sequence (P08913 whole entry, looked up): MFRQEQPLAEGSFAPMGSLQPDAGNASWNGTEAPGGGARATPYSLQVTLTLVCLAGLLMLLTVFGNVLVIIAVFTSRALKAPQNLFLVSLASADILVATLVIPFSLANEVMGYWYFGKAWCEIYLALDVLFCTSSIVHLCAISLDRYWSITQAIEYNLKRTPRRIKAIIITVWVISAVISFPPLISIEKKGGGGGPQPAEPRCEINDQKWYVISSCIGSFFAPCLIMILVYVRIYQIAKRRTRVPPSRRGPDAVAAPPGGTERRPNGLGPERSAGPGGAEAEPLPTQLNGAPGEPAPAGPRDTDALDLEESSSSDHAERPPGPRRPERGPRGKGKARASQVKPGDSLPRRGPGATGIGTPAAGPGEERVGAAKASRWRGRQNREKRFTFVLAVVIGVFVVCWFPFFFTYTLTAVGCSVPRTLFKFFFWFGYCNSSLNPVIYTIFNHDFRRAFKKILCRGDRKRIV

GABAB1A = conditions: Ricerca radioligand binding panel, receptors/transporters, at 10 µM, stronger effect = higher value
[9] = molecular target: D(1A) dopamine receptor (Homo sapiens) (UniProt P21728); conditions: Ricerca radioligand binding panel, receptors/transporters; Dopamine D1; at 10 µM; stronger effect = higher value
D(1A) dopamine receptor (Homo sapiens), sequence (P21728 whole entry, looked up): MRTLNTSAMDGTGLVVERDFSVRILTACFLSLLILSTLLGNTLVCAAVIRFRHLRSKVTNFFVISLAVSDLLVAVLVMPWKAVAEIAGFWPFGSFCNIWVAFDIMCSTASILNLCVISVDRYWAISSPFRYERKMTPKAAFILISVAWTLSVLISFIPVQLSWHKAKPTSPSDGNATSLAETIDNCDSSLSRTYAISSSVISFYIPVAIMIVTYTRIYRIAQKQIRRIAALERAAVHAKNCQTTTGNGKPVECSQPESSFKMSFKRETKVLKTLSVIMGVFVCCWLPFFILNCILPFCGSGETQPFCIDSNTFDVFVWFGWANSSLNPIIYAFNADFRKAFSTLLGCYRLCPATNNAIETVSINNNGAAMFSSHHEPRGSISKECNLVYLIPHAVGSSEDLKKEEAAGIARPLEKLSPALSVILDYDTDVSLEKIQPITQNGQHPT

[10] = tested on: Voltage-dependent L-type calcium channel subunit beta-4 (Rattus norvegicus) + Pro-epidermal growth factor (Homo sapiens) + Estrogen receptor (Homo sapiens) + Glucocorticoid receptor (Homo sapiens) + 5-hydroxytryptamine receptor 1A (Homo sapiens) + Alpha-2A adrenergic receptor (Homo sapiens) + Adenosine receptor A3 (Homo sapiens) + Androgen receptor (Homo sapiens) + Muscarinic acetylcholine receptor M1 (Homo sapiens) + D(4) dopamine receptor (Homo sapiens) + Alpha-2A adrenergic receptor (Rattus norvegicus) + Sodium- and chloride-dependent GABA transporter 1 (Rattus norvegicus) + Endothelin receptor type B (Homo sapiens) + Histamine H2 receptor (Homo sapiens) + Endothelin-1 receptor (Homo sapiens) + Neuropeptide Y receptor type 1 (Homo sapiens) + B2 bradykinin receptor (Homo sapiens) + Sodium-dependent serotonin transporter (Homo sapiens) + Histamine H1 receptor (Homo sapiens) + Mu-type opioid receptor (Homo sapiens) + D(3) dopamine receptor (Homo sapiens) + Delta-type opioid receptor (Homo sapiens) + Kappa-type opioid receptor (Homo sapiens) + Glutamate receptor ionotropic, kainate 3 (Rattus norvegicus) + 5-hydroxytryptamine receptor 3A (Homo sapiens) + Melatonin receptor type 1A (Homo sapiens) + Neuropeptide Y receptor type 2 (Homo sapiens) + P2Y purinoceptor 1 (Rattus norvegicus) + Thyroid hormone receptor alpha (Rattus norvegicus) + Glutamate receptor ionotropic, NMDA 2B (Rattus norvegicus) + Sodium-dependent dopamine transporter (Homo sapiens) + Protein kinase C zeta type …; conditions: Ricerca radioligand binding panel, receptors/transporters; at 10 µM; stronger effect = higher value
Adenosine A2A = conditions: Ricerca radioligand binding panel, receptors/transporters, at 10 µM, stronger effect = higher value
[11] = molecular target: Muscarinic acetylcholine receptor M2 (Homo sapiens) (UniProt P08172); conditions: Ricerca radioligand binding panel, receptors/transporters, at 10 µM, stronger effect = higher value
Muscarinic acetylcholine receptor M2 (Homo sapiens), sequence (P08172 whole entry, looked up): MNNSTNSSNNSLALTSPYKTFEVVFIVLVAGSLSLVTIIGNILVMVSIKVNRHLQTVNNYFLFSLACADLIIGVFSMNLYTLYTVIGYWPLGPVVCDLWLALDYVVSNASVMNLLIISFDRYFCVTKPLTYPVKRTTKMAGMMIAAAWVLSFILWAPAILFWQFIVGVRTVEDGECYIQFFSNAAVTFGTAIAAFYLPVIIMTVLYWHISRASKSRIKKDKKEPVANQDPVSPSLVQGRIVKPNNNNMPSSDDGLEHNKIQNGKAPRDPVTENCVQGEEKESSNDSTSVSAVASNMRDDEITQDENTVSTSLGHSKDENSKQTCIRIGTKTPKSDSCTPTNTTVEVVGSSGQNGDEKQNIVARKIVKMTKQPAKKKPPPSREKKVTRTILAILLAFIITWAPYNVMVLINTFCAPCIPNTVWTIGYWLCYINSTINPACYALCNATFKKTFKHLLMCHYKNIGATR

Adrenergic B1 = conditions: Ricerca radioligand binding panel, receptors/transporters, at 10 µM, stronger effect = higher value
[12] = molecular target: Glucocorticoid receptor (Homo sapiens) (UniProt P04150); conditions: Ricerca radioligand binding panel, receptors/transporters, at 10 µM, stronger effect = higher value
[13] = tested on: GABAA, Flunitrazepam, Central; conditions: Ricerca radioligand binding panel, receptors/transporters, Flunitrazepam site, at 10 µM, stronger effect = higher value
[14] = tested on: Serotonin (5-Hydroxytryptamine) 5-HT3; conditions: Ricerca radioligand binding panel, receptors/transporters, at 10 µM, stronger effect = higher value
[15] = molecular target: Voltage-gated inwardly rectifying potassium channel KCNH2 (Homo sapiens) (UniProt Q12809); conditions: Ricerca radioligand binding panel, receptors/transporters; Potassium Channel hERG; at 10 µM; stronger effect = higher value
Melatonin MT1 = conditions: Ricerca radioligand binding panel, receptors/transporters, at 10 µM, stronger effect = higher value
Adrenergic a1A = conditions: Ricerca radioligand binding panel, receptors/transporters, at 10 µM, stronger effect = higher value
[16] = molecular target: Neuropeptide Y receptor type 2 (Homo sapiens) (UniProt P49146); conditions: Ricerca radioligand binding panel, receptors/transporters; Neuropeptide Y Y2; at 10 µM; stronger effect = higher value
Neuropeptide Y receptor type 2 (Homo sapiens), sequence (P49146 whole entry, looked up): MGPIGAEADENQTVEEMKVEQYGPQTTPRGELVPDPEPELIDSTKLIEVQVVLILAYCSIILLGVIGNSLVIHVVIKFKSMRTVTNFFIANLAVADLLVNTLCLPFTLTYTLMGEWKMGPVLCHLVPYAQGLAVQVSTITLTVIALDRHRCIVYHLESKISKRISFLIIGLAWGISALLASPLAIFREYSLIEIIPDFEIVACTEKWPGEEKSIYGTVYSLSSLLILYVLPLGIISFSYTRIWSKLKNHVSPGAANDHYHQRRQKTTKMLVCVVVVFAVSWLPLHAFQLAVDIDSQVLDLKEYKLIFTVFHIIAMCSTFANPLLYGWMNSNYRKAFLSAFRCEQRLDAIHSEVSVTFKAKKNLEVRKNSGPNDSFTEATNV

Dopamine D2S = conditions: Ricerca radioligand binding panel, receptors/transporters, at 10 µM, stronger effect = higher value
[17] = tested on: Glutamate, NMDA, Phencyclidine; conditions: Ricerca radioligand binding panel, receptors/transporters, Phencyclidine site, at 10 µM, stronger effect = higher value
Prostanoid EP4 = conditions: Ricerca radioligand binding panel, receptors/transporters, at 10 µM, stronger effect = higher value
Glutamate, NMDA, Agonism = conditions: Ricerca radioligand binding panel, receptors/transporters, Agonism site, at 10 µM, stronger effect = higher value
Opiate (OP3, MOP) = conditions: Ricerca radioligand binding panel, receptors/transporters, at 10 µM, stronger effect = higher value
Histamine H1 = conditions: Ricerca radioligand binding panel, receptors/transporters, at 10 µM, stronger effect = higher value
Sigma1 = conditions: Ricerca radioligand binding panel, receptors/transporters, at 10 µM, stronger effect = higher value
Purinergic P2X = conditions: Ricerca radioligand binding panel, receptors/transporters, at 10 µM, stronger effect = higher value
[18] = tested on: Transporter, Serotonin (5-Hydroxytryptamine); conditions: Ricerca radioligand binding panel, receptors/transporters, at 10 µM, stronger effect = higher value
[19] = molecular target: Neuropeptide Y receptor type 1 (Homo sapiens) (UniProt P25929); conditions: Ricerca radioligand binding panel, receptors/transporters; Neuropeptide Y Y1; at 10 µM; stronger effect = higher value
Neuropeptide Y receptor type 1 (Homo sapiens), sequence (P25929 whole entry, looked up): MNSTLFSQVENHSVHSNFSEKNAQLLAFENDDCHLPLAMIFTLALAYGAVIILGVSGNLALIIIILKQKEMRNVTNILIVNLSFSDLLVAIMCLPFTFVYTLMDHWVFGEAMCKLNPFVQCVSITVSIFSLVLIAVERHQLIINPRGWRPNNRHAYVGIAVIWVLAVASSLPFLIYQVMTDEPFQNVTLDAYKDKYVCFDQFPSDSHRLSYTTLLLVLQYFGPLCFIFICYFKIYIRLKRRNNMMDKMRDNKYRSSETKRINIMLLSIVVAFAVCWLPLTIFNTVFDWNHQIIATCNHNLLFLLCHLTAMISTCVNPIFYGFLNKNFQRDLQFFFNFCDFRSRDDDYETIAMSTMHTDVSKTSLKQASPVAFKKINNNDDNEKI

Endothelin ETA = conditions: Ricerca radioligand binding panel, receptors/transporters, at 10 µM, stronger effect = higher value
[20] = tested on: Calcium Channel L-Type, Benzothiazepine; conditions: Ricerca radioligand binding panel, receptors/transporters, Benzothiazepine site, at 10 µM, stronger effect = higher value
Rolipram = conditions: Ricerca radioligand binding panel, receptors/transporters, at 10 µM, stronger effect = higher value
Potassium Channel KATP = conditions: Ricerca radioligand binding panel, receptors/transporters, at 10 µM, stronger effect = higher value
Adrenergic a1B = conditions: Ricerca radioligand binding panel, receptors/transporters, at 10 µM, stronger effect = higher value
[21] = molecular target: Muscarinic acetylcholine receptor M1 (Homo sapiens) (UniProt P11229); conditions: Ricerca radioligand binding panel, receptors/transporters, at 10 µM, stronger effect = higher value
Cannabinoid CB1 = conditions: Ricerca radioligand binding panel, receptors/transporters, at 10 µM, stronger effect = higher value
Dopamine D4.2 = conditions: Ricerca radioligand binding panel, receptors/transporters, at 10 µM, stronger effect = higher value
[22] = molecular target: Delta-type opioid receptor (Homo sapiens) (UniProt P41143); conditions: Ricerca radioligand binding panel, receptors/transporters; Opiate (OP1, DOP); at 10 µM; stronger effect = higher value
Delta-type opioid receptor (Homo sapiens), sequence (P41143 whole entry, looked up): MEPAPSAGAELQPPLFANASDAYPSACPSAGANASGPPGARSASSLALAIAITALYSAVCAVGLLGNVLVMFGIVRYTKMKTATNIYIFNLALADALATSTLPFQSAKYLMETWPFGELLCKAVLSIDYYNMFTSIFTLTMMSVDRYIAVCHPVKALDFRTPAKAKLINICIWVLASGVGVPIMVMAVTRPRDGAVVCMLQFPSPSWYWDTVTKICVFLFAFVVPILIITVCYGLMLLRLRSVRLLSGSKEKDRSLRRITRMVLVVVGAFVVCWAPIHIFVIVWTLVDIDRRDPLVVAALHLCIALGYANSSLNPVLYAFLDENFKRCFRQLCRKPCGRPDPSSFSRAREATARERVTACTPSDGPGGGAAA

Bradykinin B1 = conditions: Ricerca radioligand binding panel, receptors/transporters, at 10 µM, stronger effect = higher value
Glutamate, NMDA, Glycine = conditions: Ricerca radioligand binding panel, receptors/transporters, Glycine site, at 10 µM, stronger effect = higher value
[23] = tested on: Epidermal Growth Factor (EGF); conditions: Ricerca radioligand binding panel, receptors/transporters, at 10 µM, stronger effect = higher value
[24] = tested on: Transporter, Dopamine (DAT); conditions: Ricerca radioligand binding panel, receptors/transporters, at 10 µM, stronger effect = higher value
[25] = molecular target: 5-hydroxytryptamine receptor 1A (Homo sapiens) (UniProt P08908); conditions: Ricerca radioligand binding panel, receptors/transporters; Serotonin (5-Hydroxytryptamine) 5-HT1A; at 10 µM; stronger effect = higher value
Histamine H3 = conditions: Ricerca radioligand binding panel, receptors/transporters, at 10 µM, stronger effect = higher value
Adenosine A3 = conditions: Ricerca radioligand binding panel, receptors/transporters, at 10 µM, stronger effect = higher value
[26] = molecular target: Estrogen receptor (Homo sapiens) (UniProt P03372); conditions: Ricerca radioligand binding panel, receptors/transporters; Estrogen Era; at 10 µM; stronger effect = higher value
Estrogen receptor (Homo sapiens), sequence (P03372 whole entry, looked up): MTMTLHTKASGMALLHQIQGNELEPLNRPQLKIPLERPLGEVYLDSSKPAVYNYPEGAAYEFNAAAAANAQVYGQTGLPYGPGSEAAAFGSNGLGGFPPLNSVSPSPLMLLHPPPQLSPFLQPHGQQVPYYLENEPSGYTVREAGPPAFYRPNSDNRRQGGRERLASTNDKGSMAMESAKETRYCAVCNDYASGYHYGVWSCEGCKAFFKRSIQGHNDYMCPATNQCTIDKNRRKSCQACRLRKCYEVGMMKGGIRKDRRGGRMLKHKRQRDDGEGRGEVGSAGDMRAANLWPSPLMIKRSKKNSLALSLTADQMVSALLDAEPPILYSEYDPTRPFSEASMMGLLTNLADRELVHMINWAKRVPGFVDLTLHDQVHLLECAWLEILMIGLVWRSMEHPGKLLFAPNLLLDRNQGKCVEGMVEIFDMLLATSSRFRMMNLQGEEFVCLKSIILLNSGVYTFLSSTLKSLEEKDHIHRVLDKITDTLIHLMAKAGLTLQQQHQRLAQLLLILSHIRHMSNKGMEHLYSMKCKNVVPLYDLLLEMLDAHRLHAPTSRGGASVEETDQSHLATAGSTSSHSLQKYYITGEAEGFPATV

[27] = molecular target: 5-hydroxytryptamine receptor 2B (Homo sapiens) (UniProt P41595); conditions: Ricerca radioligand binding panel, receptors/transporters; Serotonin (5-Hydroxytryptamine) 5-HT2B; at 10 µM; stronger effect = higher value
5-hydroxytryptamine receptor 2B (Homo sapiens), sequence (P41595 whole entry, looked up): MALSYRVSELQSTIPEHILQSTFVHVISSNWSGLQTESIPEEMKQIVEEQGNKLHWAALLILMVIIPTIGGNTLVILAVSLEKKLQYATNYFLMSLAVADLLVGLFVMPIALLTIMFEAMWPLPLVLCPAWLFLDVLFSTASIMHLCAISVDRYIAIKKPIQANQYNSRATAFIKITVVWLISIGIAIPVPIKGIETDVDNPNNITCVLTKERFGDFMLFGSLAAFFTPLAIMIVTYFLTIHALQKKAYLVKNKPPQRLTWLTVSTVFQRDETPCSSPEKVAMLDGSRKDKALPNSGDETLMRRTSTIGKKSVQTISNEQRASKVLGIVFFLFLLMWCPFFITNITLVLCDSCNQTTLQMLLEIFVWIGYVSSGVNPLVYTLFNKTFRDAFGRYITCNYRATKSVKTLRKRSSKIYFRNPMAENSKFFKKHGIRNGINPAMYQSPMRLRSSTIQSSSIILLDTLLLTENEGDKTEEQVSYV

Histamine H2 = conditions: Ricerca radioligand binding panel, receptors/transporters, at 10 µM, stronger effect = higher value
[28] = molecular target: D(3) dopamine receptor (Homo sapiens) (UniProt P35462); conditions: Ricerca radioligand binding panel, receptors/transporters; Dopamine D3; at 10 µM; stronger effect = higher value
D(3) dopamine receptor (Homo sapiens), sequence (P35462 whole entry, looked up): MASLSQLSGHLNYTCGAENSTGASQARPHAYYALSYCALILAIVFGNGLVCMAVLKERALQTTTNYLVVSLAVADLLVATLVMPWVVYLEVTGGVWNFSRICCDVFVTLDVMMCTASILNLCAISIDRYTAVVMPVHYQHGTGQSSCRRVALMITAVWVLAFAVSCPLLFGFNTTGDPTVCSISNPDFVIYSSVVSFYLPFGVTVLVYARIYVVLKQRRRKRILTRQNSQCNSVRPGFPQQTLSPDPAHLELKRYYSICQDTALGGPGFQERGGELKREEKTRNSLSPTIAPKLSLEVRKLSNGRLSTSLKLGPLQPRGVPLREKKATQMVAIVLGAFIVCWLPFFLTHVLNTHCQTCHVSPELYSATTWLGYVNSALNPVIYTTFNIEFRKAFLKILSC

[29] = molecular target: Kappa-type opioid receptor (Homo sapiens) (UniProt P41145); conditions: Ricerca radioligand binding panel, receptors/transporters; Opiate (OP2, KOP); at 10 µM; stronger effect = higher value
Kappa-type opioid receptor (Homo sapiens), sequence (P41145 whole entry, looked up): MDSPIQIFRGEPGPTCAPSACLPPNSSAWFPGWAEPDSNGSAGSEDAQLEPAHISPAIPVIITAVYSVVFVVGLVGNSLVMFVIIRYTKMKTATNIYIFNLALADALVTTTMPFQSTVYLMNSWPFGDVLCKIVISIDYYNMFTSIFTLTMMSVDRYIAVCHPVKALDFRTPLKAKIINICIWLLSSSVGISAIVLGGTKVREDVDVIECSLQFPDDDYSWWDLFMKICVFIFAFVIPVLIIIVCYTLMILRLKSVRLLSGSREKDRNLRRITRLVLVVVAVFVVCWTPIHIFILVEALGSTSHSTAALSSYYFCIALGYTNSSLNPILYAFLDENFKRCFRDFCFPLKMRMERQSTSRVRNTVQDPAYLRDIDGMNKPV

Calcium Channel N-Type = conditions: Ricerca radioligand binding panel, receptors/transporters, at 10 µM, stronger effect = higher value
Glutamate, Kainate = conditions: Ricerca radioligand binding panel, receptors/transporters, at 10 µM, stronger effect = higher value

Measured: inhibition

COc1ccc(CC2CCN(c3ncnc4sccc34)CC2)cc1
active: [3] 80% | Adenosine A1 52% | GABAA, Muscimol, Central 58% | [8] 56% | Melatonin MT1 68% | Opiate (OP3, MOP) 55% | [24] 98% | [28] 51% | [29] 69%
inactive: [1] 11% | Tachykinin NK1 6% | Endothelin ETB 6% | Imidazoline I2, Central 15% | Nicotinic Acetylcholine -26% | Interleukin IL-1 9% | [2] 30% | Purinergic P2Y -7% | Adrenergic a1D 19% | [4] 10% | [5] 47% | Thyroid Hormone 9% | [6] 11% | Phorbol Ester 10% | [7] -3% | Transporter, GABA 1% | Bradykinin B2 8% | GABAB1A 10% | [9] 7% | [10] 3% | Adenosine A2A 31% | [11] 4% | Adrenergic B1 23% | [12] 15% | [13] -6% | [14] -13% | [15] 28% | Adrenergic a1A 28% | [16] 11% | Dopamine D2S 11% | [17] 13% | Prostanoid EP4 27% | Glutamate, NMDA, Agonism 9% | Histamine H1 8% | Sigma1 13% | Purinergic P2X -12% | [18] 44% | [19] 2% | Endothelin ETA 21% | [20] 8% | Rolipram 12% | Potassium Channel KATP 18% | Adrenergic a1B 6% | [21] -5% | Cannabinoid CB1 28% | Dopamine D4.2 4% | [22] 27% | Bradykinin B1 4% | Glutamate, NMDA, Glycine 1% | [23] 2% | [25] 1% | Histamine H3 -2% | Adenosine A3 23% | [26] 1% | [27] 47% | Histamine H2 -8% | Calcium Channel N-Type -2% | Glutamate, Kainate -3%

From PubChem BioAssay AID624355 (The Scripps Research Institute Molecular Screening Center, 2012)
